Values after ≈ are worked out from the molar mass of the structure shown. Where two headings read alike, the source gives them in different places.
Key:
[1] = test system: Pseudomonas aeruginosa A9930; type: cell-based
[2] = test system: Klebsiella pnuemonia D-11; type: cell-based; conditions: D11
[3] = test system: Morganella morganii A9553; type: cell-based
[4] = test system: Proteus mirabilis A9554; type: cell-based
[5] = test system: Micrococcus luteus PCI-1001; experiment: microbe, parasite or virus in culture; type: cell-based
[6] = test system: Staphylococcus epidermidis D153; type: cell-based
[7] = test system: Serratia marcescens A20222; experiment: microbe, parasite or virus in culture; type: cell-based
[8] = test system: Staphylococcus aureus A15097; type: cell-based
[9] = test system: Staphylococcus aureus D136; type: cell-based
[10] = test system: Staphylococcus aureus A20239; type: cell-based
[11] = test system: Staphylococcus epidermidis A22152; type: cell-based
[12] = test system: Enterobacter cloacae A9659; experiment: microbe, parasite or virus in culture; type: cell-based
[13] = test system: Bacillus subtilis PCI-219; experiment: microbe, parasite or virus in culture; type: cell-based
[14] = test system: Proteus vulgaris A9436; type: cell-based
[15] = test system: Staphylococcus aureus BX-1633; type: cell-based
[16] = test system: Strpetococcus faecalis A9612; type: cell-based
[17] = test system: Escherichia coli NIHJ; type: cell-based
[18] = test system: Staphylococcus aureus 52-34; type: cell-based; conditions: 5234
[19] = test system: Bacteriodes fragilis A22693; type: cell-based; conditions: GAM agar, 10^7-10^8 inoculum
[20] = test system: Bacteriodes fragilis CUH-108; type: cell-based
[21] = test system: Bacteriodes fragilis A22533; type: cell-based
[22] = test system: Clostridium difficile A21675; type: cell-based; conditions: Clostridioides difficile, GAM agar, 10^7-10^8 inoculum
[23] = test system: Bacteriodes fragilis A22021; type: cell-based
[24] = test system: Bacteriodes fragilis A22053; type: cell-based
[25] = test system: Bacteriodes fragilis A22695; type: cell-based
[26] = test system: P388 leukemia; type: in vivo, mice (male BDF1 strain); conditions: for T/C % of MST: ip, once daily for 9 days
[27] = test system: B16 melanoma; experiment: Antitumor activity in mice, B16 melanoma; type: in vivo, mice (male BDF1 strain); conditions: ip; for T/C % of MST: once daily for 9 days
[28] = test system: L1210 leukemia; experiment: Antitumor activity in mice, L1210 leukemia; type: in vivo, mice (male BDF1 strain); conditions: ip; for T/C % of MST: once daily for 9 days
[29] = test system: aerobic gram-negative organisms; type: cell-based
[30] = test system: various gram-positive and anaerobic bacteria; type: cell-based
[31] = test system: Propionibacterium acnes A21933; type: cell-based; conditions: Cutibacterium acnes
[32] = test system: Peptostreptococcus anaerobius A21905; type: cell-based
[33] = test system: aerobic gram-positive bacteria; type: cell-based
[34] = test system: anaerobic bacteria; type: cell-based
[35] = test system: Clostridium perfringens A22787; experiment: microbe, parasite or virus in culture; type: cell-based
[36] = test system: Bacteriodes fragilis A22534; type: cell-based
[37] = Bacteriodes fragilis CUH-108, GAM agar, 10^7-10^8 inoculum, read-out: MIC
[38] = Bacteriodes fragilis A22533, GAM agar, 10^7-10^8 inoculum, read-out: MIC
[39] = Bacteriodes fragilis A22695, GAM agar, 10^7-10^8 inoculum, read-out: MIC

## NC[C@H]1O[C@H](O[C@H]2[C@H](O)[C@@H](O[C@H]3O[C@H](CO)[C@@H](O)[C@H](N)[C@H]3O)[C@H](N)C[C@@H]2N)[C@H](O)[C@@H](O)[C@@H]1O [Kanamycin, reference compound]
[1]
  MIC: 6.3 µg/mL (≈ 13 µM)
[2]
  MIC: 0.4 µg/mL (≈ 0.826 µM)
[3]
  MIC: 6.3 µg/mL (≈ 13 µM)
[4]
  MIC: 6.3 µg/mL (≈ 13 µM)
[5]; PCI1001
  MIC: 6.3 µg/mL (≈ 13 µM)
[6]
  MIC: 0.8 µg/mL (≈ 1.65 µM)
[7]; read-out: MIC
  MIC: 3.1 µg/mL (≈ 6.4 µM)
[8]; read-out: MIC
  MIC: 0.8 µg/mL (≈ 1.65 µM)
[9]; read-out: MIC
  MIC: 0.8 µg/mL (≈ 1.65 µM)
[10]
  MIC: 100 µg/mL (≈ 206 µM)
[11]
  MIC: 25 µg/mL (≈ 51.6 µM)
[12]; read-out: MIC
  MIC: 3.1 µg/mL (≈ 6.4 µM)
[13]; PCI219, read-out: MIC
  MIC: 0.2 µg/mL (≈ 0.413 µM)
[14]; read-out: MIC
  MIC: 0.8 µg/mL (≈ 1.65 µM)
[15]; BX1633, read-out: MIC
  MIC: 0.8 µg/mL (≈ 1.65 µM)
[16]
  MIC: 25 µg/mL (≈ 51.6 µM)
[17]; read-out: MIC
  MIC: 1.6 µg/mL (≈ 3.3 µM)
[18]
  MIC: 0.8 µg/mL (≈ 1.65 µM)

## CCC[C@@H]1C[C@@H](C(=O)N[C@@H]([C@H]2O[C@H](SC)[C@H](O)[C@@H](O)[C@H]2O)[C@H](C)Cl)N(C)C1 [Clindamycin]
[19]
  MIC: 0.1 µg/mL (≈ 0.235 µM)
[20]; [37]
  MIC: 100 µg/mL (≈ 235 µM)
[21]; [38]
  MIC: 0.1 µg/mL (≈ 0.235 µM)
[22]
  MIC: 50 µg/mL (≈ 118 µM)
[23]; Bacteriodes fragilis A22021, GAM agar, 10^7-10^8 inoculum, read-out: MIC
  MIC: 0.1 µg/mL (≈ 0.235 µM)
[24]; Bacteriodes fragilis A22053, GAM agar, 10^7-10^8 inoculum, read-out: MIC
  MIC: 0.2 µg/mL (≈ 0.471 µM)
[25]; [39]
  MIC: 0.1 µg/mL (≈ 0.235 µM)

## CO[C@@]12[C@H](COC(N)=O)C3=C(C(=O)C(C)=C(N)C3=O)N1C[C@@H]1N[C@@H]12 [Mitomycin C, reference compound]
[26]; 0.13 mg/kg/day, P388 leukemia
  T/C % of MST: 150%
[26]; 0.25 mg/kg/day, P388 leukemia
  T/C % of MST: 180%
[26]; 0.5 mg/kg/day, P388 leukemia
  T/C % of MST: 240%
[26]; 1 mg/kg/day, P388 leukemia
  T/C % of MST: 450%
[27]; 0.5 mg/kg/day
  T/C % of MST: 164%
[27]; 1 mg/kg/day
  T/C % of MST: 191%
[28]; 0.13 mg/kg/day
  T/C % of MST: 129%
[28]; 0.25 mg/kg/day
  T/C % of MST: 129%
[28]; 0.5 mg/kg/day
  T/C % of MST: 141%
[28]; 1 mg/kg/day
  T/C % of MST: 141%

## COc1cccc2c1N[C@H](O)[C@@H]1CC(/C=C/C(=O)N(C)C)=CN1C2=O [BMY-28121 A]
[26]; mouse, in vivo
  antitumor activity against experimental tumors in mice: marked antitumor activity
  times more active than mitomycin C in terms of minimum effective dose: approximately 4 times
[1]
  MIC: > 50 µg/mL
[2]
  MIC: > 50 µg/mL
[29]
  in vitro activity against aerobic gram-negative organisms: did not show any in vitro activity
[20]; read-out: MIC
  MIC: 0.8 µg/mL (≈ 2.33 µM)
[3]
  MIC: > 50 µg/mL
[4]
  MIC: > 50 µg/mL
[5]; PCI1001
  MIC: 12.5 µg/mL (≈ 36.4 µM)
[6]
  MIC: 3.1 µg/mL (≈ 9.03 µM)
[30]
  antibacterial activity: possess antibacterial activity
[7]
  MIC: > 50 µg/mL
[8]
  MIC: 12.5 µg/mL (≈ 36.4 µM)
[10]
  MIC: 12.5 µg/mL (≈ 36.4 µM)
[31]; read-out: MIC
  MIC: 0.4 µg/mL (≈ 1.16 µM)
[12]
  MIC: > 50 µg/mL
[14]
  MIC: > 50 µg/mL
[23]; read-out: MIC
  MIC: 0.8 µg/mL (≈ 2.33 µM)
[15]; BX1633
  MIC: 12.5 µg/mL (≈ 36.4 µM)
[24]; read-out: MIC
  MIC: 0.8 µg/mL (≈ 2.33 µM)
[32]; read-out: MIC
  MIC: 0.4 µg/mL (≈ 1.16 µM)
[16]
  MIC: 12.5 µg/mL (≈ 36.4 µM)
[17]
  MIC: 50 µg/mL (≈ 146 µM)
[18]
  MIC: 3.1 µg/mL (≈ 9.03 µM)

## COc1cccc2c1N[C@H](OC)[C@@H]1CC(/C=C/C(=O)N(C)C)=CN1C2=O [BMY-28121 B, 1,10,11,11a-tetrahydro-9,11-dimethoxy-5H-pyrrolo-[2,1-c][1,4]benzodiazepine-5-one-2-N,N-dimethylacrylamide]
[26]; 0.008 mg/kg/day, P388 leukemia
  T/C % of MST: 120%
[26]; 0.13 mg/kg/day, P388 leukemia
  T/C % of MST: 200%
[26]; 0.25 mg/kg/day, P388 leukemia
  T/C % of MST: 210%
[26]; P388 leukemia, vs mitomycin C
  times more active than mitomycin C in terms of minimum effective dose: approximately 4 times
[26]; eg. P388 leukemia in mice
  antitumor activity against experimental tumors in mice: marked antitumor activity
[27]; 0.13 mg/kg/day
  T/C % of MST: 113%
[27]; 0.25 mg/kg/day
  T/C % of MST: 131%
[27]
  activity against B16 melanoma: marginally active
[1]
  MIC: > 50 µg/mL
[2]
  MIC: > 50 µg/mL
[29]
  in vitro activity against aerobic gram-negative organisms: did not show any in vitro activity
[33]
  susceptibility of aerobic gram-positive bacteria: moderately susceptible
[20]
  MIC: 0.4 µg/mL (≈ 1.12 µM)
[3]
  MIC: > 50 µg/mL
[4]
  MIC: > 50 µg/mL
[5]; PCI1001
  MIC: 12.5 µg/mL (≈ 35 µM)
[30]
  antibacterial activity: possess antibacterial activity
[7]
  MIC: > 50 µg/mL
[8]
  MIC: 6.3 µg/mL (≈ 17.6 µM)
[9]
  MIC: 6.3 µg/mL (≈ 17.6 µM)
[34]
  inhibition of anaerobic bacteria: inhibited all of the gram-positive and negative organisms
[10]
  MIC: 6.3 µg/mL (≈ 17.6 µM)
[21]
  MIC: 0.8 µg/mL (≈ 2.24 µM)
[35]
  MIC: 0.4 µg/mL (≈ 1.12 µM)
[31]
  MIC: 0.4 µg/mL (≈ 1.12 µM)
In ethyl acetate and ethyl ether
  solubility: slightly soluble
In methanol, ethanol, chloroform, pyridine, and dimethylformamide
  solubility: readily soluble
In n-hexane and water
  solubility: practically insoluble
[12]
  MIC: > 50 µg/mL
[14]
  MIC: > 50 µg/mL
[23]
  MIC: 0.2 µg/mL (≈ 0.56 µM)
[36]
  MIC: 0.4 µg/mL (≈ 1.12 µM)
[15]; BX1633
  MIC: 6.3 µg/mL (≈ 17.6 µM)
[24]
  MIC: 0.4 µg/mL (≈ 1.12 µM)
[32]
  MIC: 0.2 µg/mL (≈ 0.56 µM)
[28]; 0.13 mg/kg/day
  T/C % of MST: 129%
[28]; 0.25 mg/kg/day
  T/C % of MST: 129%
[28]
  therapeutic activity against L1210 leukemia: potent therapeutic activity
[16]
  MIC: 6.3 µg/mL (≈ 17.6 µM)
[25]
  MIC: 0.4 µg/mL (≈ 1.12 µM)
[17]
  MIC: > 50 µg/mL

## CC1(C)S[C@@H]2[C@H](NC(=O)[C@H](N)c3ccccc3)C(=O)N2[C@H]1C(=O)O [Ampicillin, reference compound]
[20]; [37]
  MIC: 50 µg/mL (≈ 143 µM)
[5]; PCI1001, read-out: MIC
  MIC: < 0.0063 µg/mL
[21]; [38]
  MIC: > 100 µg/mL
[13]; PCI219
  MIC: 0.025 µg/mL (≈ 0.0715 µM)
[36]; Bacteriodes fragilis A22534, GAM agar, 10^7-10^8 inoculum, read-out: MIC
  MIC: > 100 µg/mL
[25]; [39]
  MIC: > 100 µg/mL

Source: US4935362A, “BMY-28121, a new antitumor antibiotic” (Bristol-Myers Company, priority 1987, dated 1990)
